Experimental data as given in the NIST ThermoML archive (doi:10.1016/j.jct.2018.12.022).
± gives the expanded uncertainty stated by the source.

Tests used:
[1] = 298.15 K, 101.33 kPa, Liquid
[2] = refractive index (Na D-line) (dimensionless); details: 298.15 K; 101.33 kPa; Liquid; Standard Abbe refractometry

viscosity ([1]; Falling or rolling sphere viscometry): 715 ± 70 mPa·s
mass density ([1]; Vibrating tube method): 1122.56 ± 1.1 kg/m3
refractive index [2]: 1.4868 ± 0.0006
Compound: C[C@H](N)C(=O)[O-].C[N+](C)(C)CCO [2-hydroxy-N,N,N-trimethylethanaminium L-alaninate]
